Test results reported in patent US12428406B2 (PMV Pharmaceuticals, Inc., priority 2019, dated 2025).

Biological target: T1, p53 Y220C (Homo sapiens, UniProt P04637, Y220C)
T1 construct: The recombinant protein was a truncation mutant containing only amino acids 94-312 of p53; made in house; host or cells: E. coli
Test: In vitro DNA binding activity assay (HTRF / TR-FRET): stabilization of p53 Y220C and increase of its DNA binding activity
Assay type: biochemical
Conditions: recombinant His-tagged p53 Y220C DNA binding domain (aa 94-312), biotin-labeled consensus DNA, incubated at 27° C. or 29° C. for 60 min
Summary of the method: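 Test compounds, diluted 3-fold in DMSO from 4.5 mM stocks, were incubated with bacterially expressed His-tagged p53 Y220C at room temperature for 15 min, and after a further step for 20 min. DNA binding was detected by time-resolved FRET between APC and europium labels. SC150 marks the concentration increasing binding by 50%.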

T1 sequence (P04637 94-312, change not shown): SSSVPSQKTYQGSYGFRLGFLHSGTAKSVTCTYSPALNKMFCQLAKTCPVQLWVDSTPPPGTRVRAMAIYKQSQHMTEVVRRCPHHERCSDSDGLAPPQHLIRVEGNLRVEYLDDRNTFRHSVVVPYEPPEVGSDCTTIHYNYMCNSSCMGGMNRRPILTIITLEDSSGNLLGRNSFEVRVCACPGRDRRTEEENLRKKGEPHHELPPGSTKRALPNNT

SC150 (concentration of the compound required to increase the DNA binding activity by 50%) | SMILES
+ (+ = 0 μM ≤ SC150 < 0.05 μM) | COc1cc(S(=O)(=O)Nc2ccon2)ccc1NCC#Cc1cc2c(NC3CCS(=O)(=O)CC3)cccc2n1CC(F)(F)F [Compound 1039A, 4-[(3-{4-[(1,1-dioxo-1λ^6-thian-4-yl)amino]-1-(2,2,2-trifluoroethyl)-1H-indol-2-yl}prop-2-yn-1-yl)amino]-3-methoxy-N-(1,2-oxazol-3-yl)benzene-1-sulfonamide]
+ (+ = 0 μM ≤ SC150 < 0.05 μM) | COc1cc(S(=O)(=O)Nc2cc(C)on2)ccc1NCC#Cc1cc2c(NC3CCS(=O)(=O)CC3)cccc2n1CC(F)(F)F [Compound 1040A, 4-[(3-{4-[(1,1-dioxo-1λ^6-thian-4-yl)amino]-1-(2,2,2-trifluoroethyl)-1H-indol-2-yl}prop-2-yn-1-yl)amino]-3-methoxy-N-(5-methyl-1,2-oxazol-3-yl)benzene-1-sulfonamide]
+ (+ = 0 μM ≤ SC150 < 0.05 μM) | COc1cc(S(=O)(=O)NC2CCOCC2)ccc1NCC#Cc1cc2c(NC3CCS(=O)(=O)CC3)cccc2n1CC(F)(F)F [Compound 1041A, 4-[(3-{4-[(1,1-dioxo-1λ^6-thian-4-yl)amino]-1-(2,2,2-trifluoroethyl)-1H-indol-2-yl}prop-2-yn-1-yl)amino]-3-methoxy-N-(oxan-4-yl)benzene-1-sulfonamide]
+ (+ = 0 μM ≤ SC150 < 0.05 μM) | COc1cc(S(=O)(=O)NCC(O)CO)ccc1NCC#Cc1cc2c(NC3CCS(=O)(=O)CC3)cccc2n1CC(F)(F)F (stereo not drawn) [Compound 1042A, N-(2,3-dihydroxypropyl)-4-[(3-{4-[(1,1-dioxo-1λ^6-thian-4-yl)amino]-1-(2,2,2-trifluoroethyl)-1 H-indol-2-yl}prop-2-yn-1-yl)amino]-3-methoxybenzene-1-sulfonamide]
+ (+ = 0 μM ≤ SC150 < 0.05 μM) | COc1cc(S(=O)(=O)N(C)CCN(C)C)ccc1NCC#Cc1cc2c(NC3CCS(=O)(=O)CC3)cccc2n1CC(F)(F)F [Compound 1043A, N-[2-(dimethylamino)ethyl]-4-[(3-{4-[(1,1-dioxo-1λ^6-thian-4-yl)amino]-1-(2,2,2-trifluoroethyl)-1H-indol-2-yl}prop-2-yn-1-yl)amino]-3-methoxy-N-methylbenzene-1-sulfonamide]
+ (+ = 0 μM ≤ SC150 < 0.05 μM) | COc1cc(S(=O)(=O)N(C)C)ccc1NCC#Cc1cc2c(NC3CCS(=O)(=O)CC3)cccc2n1CC(F)(F)F [Compound 1044A, 4-[(3-{4-[(1,1-dioxo-1λ^6-thian-4-yl)amino]-1-(2,2,2-trifluoroethyl)-1H-indol-2-yl}prop-2-yn-1-yl)amino]-3-methoxy-N,N-dimethylbenzene-1-sulfonamide]
+ (+ = 0 μM ≤ SC150 < 0.05 μM) | COc1cc(S(=O)(=O)N2CCN(C(C)=O)CC2)ccc1NCC#Cc1cc2c(NC3CCS(=O)(=O)CC3)cccc2n1CC(F)(F)F [Compound 1045A, 4-({2-[3-({4-[(4-acetylpiperazin-1-yl)sulfonyl]-2-methoxyphenyl}amino)prop-1-yn-1-yl]-1-(2,2,2-trifluoroethyl)-1H-indol-4-yl}amino)-1λ^6-thiane-1,1-dione]
+ (+ = 0 μM ≤ SC150 < 0.05 μM) | COCCN(C)S(=O)(=O)c1ccc(NCC#Cc2cc3c(NC4CCS(=O)(=O)CC4)cccc3n2CC(F)(F)F)c(OC)c1 [Compound 1046A, 4-[(3-{4-[(1,1-dioxo-1λ^6-thian-4-yl)amino]-1-(2,2,2-trifluoroethyl)-1H-indol-2-yl}prop-2-yn-1-yl)amino]-3-methoxy-N-(2-methoxyethyl)-N-methylbenzene-1-sulfonamide]
+ (+ = 0 μM ≤ SC150 < 0.05 μM) | COc1cc(S(=O)(=O)N2CC3(COC3)C2)ccc1NCC#Cc1cc2c(NC3CCS(=O)(=O)CC3)cccc2n1CC(F)(F)F [Compound 1047A, 4-[(2-{3-[(2-methoxy-4-{2-oxa-6-azaspiro[3.3]heptane-6-sulfonyl}phenyl)amino]prop-1-yn-1-yl}-1-(2,2,2-trifluoroethyl)-1H-indol-4-yl)amino]-1λ^6-thiane-1,1-dione]
+ (+ = 0 μM ≤ SC150 < 0.05 μM) | COc1cc(S(=O)(=O)N2CCN(C)CC2)ccc1NCC#Cc1cc2c(NC3CCS(=O)(=O)CC3)cccc2n1CC(F)(F)F [Compound 1048A, 4-({2-[3-({2-methoxy-4-[(4-methylpiperazin-1-yl)sulfonyl]phenyl}amino)prop-1-yn-1-yl]-1-(2,2,2-trifluoroethyl)-1H-indol-4-yl}amino)-1λ^6-thiane-1,1-dione]
+ (+ = 0 μM ≤ SC150 < 0.05 μM) | CNC(=O)c1ccc(NCC#Cc2cc3c(NC4CCS(=O)(=O)CC4)cccc3n2CC(F)(F)F)c(OC)c1 [Compound 1049A, 4-[(3-{4-[(1,1-dioxo-1λ^6-thian-4-yl)amino]-1-(2,2,2-trifluoroethyl)-1H-indol-2-yl}prop-2-yn-1-yl)amino]-3-methoxy-N-methylbenzamide]
+ (+ = 0 μM ≤ SC150 < 0.05 μM) | COCC(CNC(=O)c1ccc(NCC#Cc2cc3c(N[C@@H]4CCN(C)C[C@@H]4F)cccc3n2CC(F)(F)F)c(OC)c1)OC(=O)C(C)C (stereo partly drawn) [Compound 1055A, 1-[(4-{[3-(4-{[(3S,4R)-3-fluoro-1-methylpiperidin-4-yl]amino}-1-(2,2,2-trifluoroethyl)-1H-indol-2-yl)prop-2-yn-1-yl]amino}-3-methoxyphenyl)formamido]-3-methoxypropan-2-yl 2-methylpropanoate]
+ (+ = 0 μM ≤ SC150 < 0.05 μM) | COc1cc(C(=O)NC(C)CO)ccc1NCC#Cc1cc2c(N[C@@H]3CCN(C)C[C@@H]3F)cccc2n1CC(F)(F)F (stereo partly drawn) [Compound 1056A, 4-{[3-(4-{[(3S,4R)-3-fluoro-1-methylpiperidin-4-yl]amino}-1-(2,2,2-trifluoroethyl)-1H-indol-2-yl)prop-2-yn-1-yl]amino}-N-(1-hydroxypropan-2-yl)-3-methoxybenzamide]
+ (+ = 0 μM ≤ SC150 < 0.05 μM) | COc1cc(C(=O)NCC(C)O)ccc1NCC#Cc1cc2c(N[C@@H]3CCN(C)C[C@@H]3F)cccc2n1CC(F)(F)F (stereo partly drawn) [Compound 1057A, 4-{[3-(4-{[(3S,4R)-3-fluoro-1-methylpiperidin-4-yl]amino}-1-(2,2,2-trifluoroethyl)-1H-indol-2-yl)prop-2-yn-1-yl]amino}-N-(2-hydroxypropyl)-3-methoxybenzamide]
+ (+ = 0 μM ≤ SC150 < 0.05 μM) | CNC(=O)c1ccc(NCC#Cc2cc3c(N[C@@H]4CCN(C)C[C@@H]4F)cccc3n2CC(F)(F)F)c(O)c1 [Compound 1058A, 4-{[3-(4-{[(3S,4R)-3-fluoro-1-methylpiperidin-4-yl]amino}-1-(2,2,2-trifluoroethyl)-1H-indol-2-yl)prop-2-yn-1-yl]amino}-3-hydroxy-N-methylbenzamide]
+ (+ = 0 μM ≤ SC150 < 0.05 μM) | CCOc1cc(C(N)=O)ccc1NCC#Cc1cc2c(N[C@@H]3CCN(C)C[C@@H]3F)cccc2n1CC(F)(F)F [Compound 1059A, 3-ethoxy-4-{[3-(4-{[(3S,4R)-3-fluoro-1-methylpiperidin-4-yl]amino}-1-(2,2,2-trifluoroethyl)-1H-indol-2-yl)prop-2-yn-1-yl]amino}benzamide]
+ (+ = 0 μM ≤ SC150 < 0.05 μM) | CCNC(=O)c1ccc(NCC#Cc2cc3c(N[C@@H]4CCN(C)C[C@@H]4F)cccc3n2CC(F)(F)F)c(O)c1 [Compound 1060A, N-ethyl-4-{[3-(4-{[(3S,4R)-3-fluoro-1-methylpiperidin-4-yl]amino}-1-(2,2,2-trifluoroethyl)-1H-indol-2-yl)prop-2-yn-1-yl]amino}-3-hydroxybenzamide]
+ (+ = 0 μM ≤ SC150 < 0.05 μM) | COc1cc(C(=O)NCC(COC(=O)C(C)C)OC)ccc1NCC#Cc1cc2c(N[C@@H]3CCN(C)C[C@@H]3F)cccc2n1CC(F)(F)F (stereo partly drawn) [Compound 1061A, 3-[(4-{[3-(4-{[(3S,4R)-3-fluoro-1-methylpiperidin-4-yl]amino}-1-(2,2,2-trifluoroethyl)-1H-indol-2-yl)prop-2-yn-1-yl]amino}-3-methoxyphenyl)formamido]-2-methoxypropyl 2-methylpropanoate]
+ (+ = 0 μM ≤ SC150 < 0.05 μM) | CCNC(=O)c1ccc(NCC#Cc2cc3c(N[C@@H]4CCNC[C@@H]4F)cccc3n2CC(F)(F)F)c(OC)c1 [Compound 1062A, N-ethyl-4-{[3-(4-{[(3S,4R)-3-fluoropiperidin-4-yl]amino}-1-(2,2,2-trifluoroethyl)-1H-indol-2-yl)prop-2-yn-1-yl]amino}-3-methoxybenzamide]
+ (+ = 0 μM ≤ SC150 < 0.05 μM) | CCN1CC[C@@H](Nc2cccc3c2cc(C#CCNc2ccc(C(N)=O)cc2OC)n3CC(F)(F)F)[C@@H](F)C1 [Compound 1063A, 4-{[3-(4-{[(3S,4R)-1-ethyl-3-fluoropiperidin-4-yl]amino}-1-(2,2,2-trifluoroethyl)-1H-indol-2-yl)prop-2-yn-1-yl]amino}-3-methoxybenzamide]
+ (+ = 0 μM ≤ SC150 < 0.05 μM) | COc1cc(C(=O)N(C)C)ncc1NCC#Cc1cc2c(N[C@@H]3CCN(C)C[C@@H]3F)cccc2n1CC(F)(F)F [Compound 1064A, 5-{[3-(4-{[(3S,4R)-3-fluoro-1-methylpiperidin-4-yl]amino}-1-(2,2,2-trifluoroethyl)-1H-indol-2-yl)prop-2-yn-1-yl]amino}-4-methoxy-N,N-dimethylpyridine-2-carboxamide]
